According to US11352341B2, “2H-indazole derivatives as CDK4 and CDK6 inhibitors and therapeutic uses thereof” (Beta Pharma, Inc., priority 2018, dated 2022):
Counter-ions that a name gives are not always drawn.

How the values were obtained:
Format in all cases: biochemical
Settings in all cases: RB Protein 3 μM substrate, 33P-ATP 1 μM, 10-dose IC50 mode, 3-fold dilution starting at 0.1 μM
[1] = biological target: CDK6/cyclin D1 (Homo sapiens, UniProt Q00534); experiment: Radiometric 33P-ATP filter-binding kinase assay, CDK6/cyclin D1
Sequence of CDK6/cyclin D1 (Q00534 whole entry, species assumed): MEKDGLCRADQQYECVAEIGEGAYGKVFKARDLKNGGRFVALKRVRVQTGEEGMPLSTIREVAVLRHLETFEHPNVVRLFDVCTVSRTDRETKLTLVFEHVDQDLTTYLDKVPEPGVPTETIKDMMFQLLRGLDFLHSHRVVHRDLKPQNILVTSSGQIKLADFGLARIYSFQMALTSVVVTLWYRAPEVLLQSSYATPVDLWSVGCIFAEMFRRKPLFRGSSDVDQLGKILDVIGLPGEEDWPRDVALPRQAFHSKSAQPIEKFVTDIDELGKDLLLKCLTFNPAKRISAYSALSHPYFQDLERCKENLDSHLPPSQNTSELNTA
Sequence of CDK6/cyclin D1 (P24385 whole entry partner, species assumed): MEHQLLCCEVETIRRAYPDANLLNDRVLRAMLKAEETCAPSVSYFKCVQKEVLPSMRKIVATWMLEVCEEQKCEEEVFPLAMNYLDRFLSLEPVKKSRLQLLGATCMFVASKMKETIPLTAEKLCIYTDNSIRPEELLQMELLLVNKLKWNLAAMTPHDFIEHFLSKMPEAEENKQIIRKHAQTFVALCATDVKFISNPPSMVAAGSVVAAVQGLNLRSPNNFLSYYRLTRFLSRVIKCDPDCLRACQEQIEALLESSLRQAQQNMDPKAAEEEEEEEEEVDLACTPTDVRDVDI
Protocol: (§1) CDK4/cyclin D1, CDK4/cyclin D3, CDK6/cyclin D1, and CDK6/cyclin D3 were added to freshly prepared substrate solution (RB Protein, 3 μM) which was in freshly made reaction buffer (20 mM Hepes (pH 7.5), 10 mM MgCl2, 1 mM EGTA, 0.02% Brij35, 0.02 mg/mL BSA, 0.1 mM Na3VO4, 2 mM DTT, 1% DMSO) and gently mixed, respectively. Compound 1.HCl was tested in a 10-dose IC50 mode with 3-fold dilution starting at 0.1 μM. Compound 1.HCl was prepared and diluted in DMSO and was delivered into the kinases/substrate reaction mixture by Acoustic technology (Echo550; nanoliter range), then incubated for 20 min at room temperature. Then 33P-ATP (1 μM) was added into the reaction mixture to initiate the reaction. The kinase reaction was incubated at room temperature for 2 hours. The reactions were spotted onto P81 ion-exchange paper and radioactivity was detected by filter-binding method. The kinase activity data were expressed as the percent remaining kinase activity in test samples compared to vehicle (Dimethyl Sulfoxide) reactions. […] HCl were determined for all 4 kinases: CDK4/cyclin D1, CDK4/cyclin D3, CDK6/cyclin D1, and CDK6/cyclin D3 and are shown in Table 2, as compared with those of ethylated counterpart, namely N-(5-((4-ethylpiperazin-1-yl)methyl)pyridin-2-yl)-5-fluoro-4-(3-isopropyl-2-methyl-2H-indazol-5-yl)pyrimidin-2-amine, or compound 37. […]

[2] = biological target: CDK6/cyclin D3 (Homo sapiens, UniProt Q00534); experiment: Radiometric 33P-ATP filter-binding kinase assay, CDK6/cyclin D3
Sequence of CDK6/cyclin D3 (Q00534 whole entry, species assumed): as the sequence (Q00534 whole entry, species assumed) above
Sequence of CDK6/cyclin D3 (P30281 whole entry partner, species assumed): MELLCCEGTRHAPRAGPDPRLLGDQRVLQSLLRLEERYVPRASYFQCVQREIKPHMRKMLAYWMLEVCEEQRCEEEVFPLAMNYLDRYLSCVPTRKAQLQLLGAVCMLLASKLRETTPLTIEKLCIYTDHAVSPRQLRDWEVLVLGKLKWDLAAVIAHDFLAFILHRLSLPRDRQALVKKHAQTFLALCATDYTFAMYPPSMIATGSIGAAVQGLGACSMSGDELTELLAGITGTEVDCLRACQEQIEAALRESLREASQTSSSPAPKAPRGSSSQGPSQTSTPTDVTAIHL
Protocol: as §1

[3] = biological target: CDK4/cyclin D3 (Homo sapiens, UniProt P11802); experiment: Radiometric 33P-ATP filter-binding kinase assay, CDK4/cyclin D3
Sequence of CDK4/cyclin D3 (P11802 whole entry, species assumed): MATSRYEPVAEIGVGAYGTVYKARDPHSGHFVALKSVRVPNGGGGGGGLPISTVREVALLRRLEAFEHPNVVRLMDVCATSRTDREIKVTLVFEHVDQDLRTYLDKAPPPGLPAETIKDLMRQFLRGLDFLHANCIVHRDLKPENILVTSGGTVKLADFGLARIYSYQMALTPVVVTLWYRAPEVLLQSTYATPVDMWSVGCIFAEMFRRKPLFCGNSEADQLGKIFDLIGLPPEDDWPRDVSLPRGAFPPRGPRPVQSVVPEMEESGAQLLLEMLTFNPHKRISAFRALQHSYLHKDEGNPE
Sequence of CDK4/cyclin D3 (P30281 whole entry partner, species assumed): as the sequence (P30281 whole entry partner, species assumed) above
Protocol: as §1

[4] = biological target: CDK4/cyclin D1 (Homo sapiens, UniProt P11802); experiment: Radiometric 33P-ATP filter-binding kinase assay, CDK4/cyclin D1
Sequence of CDK4/cyclin D1 (P11802 whole entry, species assumed): as the sequence (P11802 whole entry, species assumed) above
Sequence of CDK4/cyclin D1 (P24385 whole entry partner, species assumed): as the sequence (P24385 whole entry partner, species assumed) above
Protocol: as §1

CCN1CCN(Cc2ccc(Nc3ncc(F)c(-c4ccc5nn(C)c(C(C)C)c5c4)n3)nc2)CC1 [Compound 37, N-(5-((4-ethylpiperazin-1-yl)methyl)pyridin-2-yl)-5-fluoro-4-(3-isopropyl-2-methyl-2H-indazol-5-yl)pyrimidin-2-amine]
IC50 [1]: 23.8 nM
IC50 [2]: 5.66 nM
IC50 [3]: 1.98 nM
IC50 [4]: 1.47 nM

CC(C)c1c2cc(-c3nc(Nc4ccc(CN5CCNCC5)cn4)ncc3F)ccc2nn1C [1•HCl, 5-Fluoro-4-(3-isopropyl-2-methyl-2H-indazol-5-yl)-N-(5-(piperazin-1-ylmethyl)pyridin-2-yl)pyrimidin-2-amine hydrochloride]
IC50 [1]: 1.11 nM
IC50 [2]: 25.6 nM
IC50 [3]: 3.99 nM
IC50 [4]: 0.705 nM
